Where a name gives a salt, the structure may show the parent alone. Read-outs that look alike come from different tables or passages of the source.

Data on five compounds can be found in patent US20250270246A1, “LINCOSAMIDES AND USES THEREOF” (President and Fellows of Harvard College, priority 2022, published 2025).

Type in all cases: cell-based
The test system of experiment [1] is S. aureus MMX 3035. The experiment can be described thus: MIC by broth microdilution (CLSI). Conditions: for MIC: Staphylococcus aureus, MMX3035, 24 h, read-out: MIC S. aureus MMX 3035. In a few lines: (§1)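 MIC read as the lowest compound level with no visible growth at 24 h (μg/mL). CLSI microdilution; CaMHB (Chelex 100-treated for P. aeruginosa); 5×10^5 CFU/mL; range 64-0.06 μg/mL; DMSO 2.5% final.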

The subject of experiment [2] is E. coli lptD mutant. The experiment can be described thus: MIC by broth microdilution (CLSI). Conditions: CaMHB, 24 h incubation; for MIC E. coli lptD mutant: lptD mutant / ΔlptD mutant, formate salt. The gist of the method: as §1
(In broth dilution the organism is exposed to a series of concentrations in liquid medium.)

In experiment [3] the test system is E. coli Clinical (armA). The experiment can be described thus: MIC by broth microdilution (CLSI). To be noted: for MIC: Escherichia coli, 24 h, read-out: MIC E. coli Clinical (armA). In a few lines: as §1
Experiment [4] deals with E. coli ΔtolC. Put plainly: MIC by broth microdilution (CLSI). Conditions: CaMHB, 24 h incubation; for MIC: Escherichia coli, 24 h, read-out: MIC E. coli ΔtolC, ΔtolC. In a few lines: as §1
The subject of experiment [5] is S. aureus Clinical (cfr). Put plainly: MIC by broth microdilution (CLSI). To be noted: for MIC: Staphylococcus aureus, 24 h, read-out: MIC S. aureus Clinical (cfr). In a few lines:
as §1

Experiment [6] deals with E. faecalis ATCC 29212 (HAV#005). Put plainly: MIC by broth microdilution (CLSI). Conditions: for MIC: Enterococcus faecalis, ATCC29212, 24 h, read-out: MIC E. faecalis ATCC 29212. The gist of the method:
as §1

Experiment [7] deals with K. pneumoniae JMI-991193. The experiment can be described thus: MIC by broth microdilution (CLSI). Conditions: for MIC: Klebsiella pneumoniae, JMI991193, 24 h, read-out: MIC K. pneumoniae JMI-991193. The gist of the method:
as §1

Experiment [8] concerns E. coli ATCC 25922 (HAV#006). The experiment can be described thus: MIC by broth microdilution (CLSI). To be noted: for MIC: Escherichia coli, ATCC25922, 24 h, read-out: MIC E. coli ATCC 25922. In a few lines:
as §1

Experiment [9] has as its system S. aureus ATCC 29213 (HAV#001). The experiment can be described thus: MIC by broth microdilution (CLSI). Conditions: for MIC: Staphylococcus aureus, ATCC29213, 24 h, read-out: MIC S. aureus ATCC 29213. In a few lines: as §1
In experiment [10] the test system is P. aeruginosa ATCC 27853 (HAV#009). Put plainly: MIC by broth microdilution (CLSI), Chelex 100-treated broth. To be noted: HAV#009, ATCC 27853, CaMHB pre-treated with Chelex 100 ion exchange resin, 24 h. The protocol: Minimum inhibitory concentrations (MICs) were determined by the broth microdilution method following the Clinical and Laboratory Standards Institute (CLSI) guidelines. Test organisms consisted of standard reference strains from the American Type Culture Collection (ATCC; Manassa, VA, USA) and clinical isolates obtained from JMI Laboratories Inc. (North Liberty, IA, USA), Micromyx repository (MMX; Kalamazoo, MI, USA), and Massachusetts Eye and Ear Hospital (Boston, USA). Before the start of the MIC experiment, standard and test compound stock solutions were prepared in dimethyl sulfoxide (DMSO, Aldrich D2650) at a stock concentration of 2,560 μg/mL. The compound concentration range typically employed for each experiment was 64-0.06 μg/mL (2.5% final DMSO concentration). Iboxamycin was used as a comparator in all experiments. All bacterial strains were sub-cultured on blood agar plates (tryptic soy agar with 5% sheep blood, Hardy Diagnostics) and incubated overnight at 35° C. Organisms were suspended in cation-adjusted Mueller-Hinton broth (CaMHB, BD 212322) and optical density was adjusted to 0.5 McFarland standard. Suspensions were further diluted to obtain a final inoculum of 5×10^5 CFU/mL for broth microdilution experiments. The minimum concentration of compound required to inhibit visible bacterial growth after 24 h of incubation was recorded as the MIC in μg/mL. MICs for P. aeruginosa were recorded in cation-adjusted Mueller-Hinton broth which had been pre-treated with Chelex 100 ion exchange resin according to procedures reported in Ito et al. Antimicrob Agents Chemother (2016) 60 (12), 7396-7401.

The subject of experiment [11] is K. oxytoca HAV#450; Clinical. Put plainly: MIC by broth microdilution (CLSI). Conditions: Klebsiella oxytoca, CaMHB, 24 h incubation, read-out: MIC K. oxytoca HAV#450. In a few lines: as §1
Experiment [12] relates to S. pyogenes HAV#004, ATCC 19615. Put plainly: MIC by broth microdilution (CLSI). To be noted: Streptococcus pyogenes, ATCC19615, CaMHB, 24 h incubation. In a few lines:
as §1

For experiment [13], the system named is S. aureus HAV#202, ATCC 700699. Put plainly: MIC by broth microdilution (CLSI). Conditions: Staphylococcus aureus, ATCC700699, CaMHB, 24 h incubation. The gist of the method: as §1
Experiment [14] has as its system E. coli HAV#040, LptD. The experiment can be described thus: MIC by broth microdilution (CLSI). Conditions: Escherichia coli, 24 h, read-out: MIC E. coli HAV#040, LptD. The gist of the method: as §1
For experiment [15], the system named is E. faecium HAV#318, VRE; clinical. Put plainly: MIC by broth microdilution (CLSI). To be noted: Enterococcus faecium, CaMHB, 24 h incubation, read-out: MIC E. faecium HAV#318, VRE. The gist of the method: as §1
Experiment [16] relates to E. coli HAV#038, ΔTolC. The experiment can be described thus: MIC by broth microdilution (CLSI). To be noted: Escherichia coli, 24 h, read-out: MIC E. coli HAV#038, ΔTolC. In a few lines:
as §1

The subject of experiment [17] is S. aureus HAV#016, MRSA. The experiment can be described thus: MIC by broth microdilution (CLSI). Conditions: Staphylococcus aureus, CaMHB, 24 h incubation. In a few lines: as §1
Experiment [18] deals with S. pneumoniae HAV#003, ATCC 49619. Put plainly: MIC by broth microdilution (CLSI). Conditions: Streptococcus pneumoniae, ATCC49619, CaMHB, 24 h incubation. The gist of the method:
as §1

Experiment [19] concerns H. influenzae ATCC 49247. Put plainly: MIC by broth microdilution (CLSI). To be noted: Haemophilus influenzae, ATCC49247, 24 h, read-out: MIC H. influenzae ATCC 49247. The gist of the method:
as §1

Experiment [20] has as its system E. faecium JMI-990536. Put plainly: MIC by broth microdilution (CLSI). Conditions: Enterococcus faecium, JMI990536, 24 h, read-out: MIC E. faecium JMI-990536. In a few lines:
as §1

The test system of experiment [21] is A. baumannii ATCC 19606 (HAV#010). Put plainly: MIC by broth microdilution (CLSI). To be noted: Acinetobacter baumannii, ATCC19606, 24 h, read-out: MIC A. baumannii ATCC 19606. In a few lines: as §1
Experiment [22] relates to S. pneumoniae c-ermB. Put plainly: MIC by broth microdilution (CLSI). Conditions: Streptococcus pneumoniae, 24 h, read-out: MIC S. pneumoniae c-ermB. In a few lines: as §1
Where [23] appears, read: MMX 3035, CaMHB, 24 h incubation.
Where [24] appears, read: Clinical (cfr), CaMHB, 24 h incubation.
Setting [25] is: JMI-991193, CaMHB, 24 h incubation.
Where [26] appears, read: HAV#001, ATCC 29213, CaMHB, 24 h incubation.
The mark [27] stands for this setting: HAV#006, ATCC 25922, CaMHB, 24 h incubation.

`CC(C)C[C@@H]1CCO[C@@H]2[C@H](CN[C@@H]2C(=O)N[C@@H]2C/C=C/C(CN3CCOCC3)CSC3OC2C(O)C(O)C3O)C1` (single isomer, unassigned) [FSA1608056, formate salt]: in [1] (setting [23]), the “MIC S. aureus MMX 3035” value is over 64 µg/mL. The “MIC E. coli lptD mutant” value in [2] amounted to 4 µg/mL. Also, the “MIC E. coli Clinical (armA)” value in experiment [3] (Clinical (armA), CaMHB, 24 h incubation, formate salt) is 64 µg/mL. Besides, in experiment [4] (ΔtolC), the “MIC E. coli ΔtolC” value worked out at 16 µg/mL. Besides, the “MIC S. aureus Clinical (cfr)” value in [5] (setting [24]) is over 64 µg/mL. Moreover, the “MIC E. faecalis ATCC 29212” value in [6] (HAV#005, ATCC 29212, CaMHB, 24 h incubation, formate salt) came to 4 µg/mL. For the same compound, the “MIC K. pneumoniae JMI-991193” value in experiment [7] (setting [25]) was over 64 µg/mL. The “MIC E. coli ATCC 25922” value in experiment [8] (HAV#006, ATCC 25922, CaMHB, 24 h incubation, formate salt) is 64 µg/mL. For the same compound, in experiment [9] (setting [26]), the “MIC S. aureus ATCC 29213” value was determined as 4 µg/mL. Also, the “MIC P. aeruginosa ATCC 27853” value in experiment [10] was determined as 32 µg/mL.
Regarding `CC(C)C[C@@H]1CCO[C@@H]2[C@H](CN[C@@H]2C(=O)N[C@@H]2C/C=C/C(CN3CCOCC3)CSC3OC2C(O)C(O)C3O)C1` (single isomer, unassigned) [FSA1608057, formate salt], the MIC is over 64 µg/mL in experiment [1] (setting [23]); over 64 µg/mL in experiment [3] (Clinical (armA), CaMHB, 24 h incubation); 16 µg/mL in experiment [4]; over 64 µg/mL in experiment [5] (setting [24]); 2 µg/mL in experiment [6] (HAV#005, ATCC 29212, CaMHB, 24 h incubation); over 64 µg/mL in experiment [7] (setting [25]). Also, the MIC is over 64 µg/mL in experiment [8] (setting [27]); 4 µg/mL in experiment [9] (setting [26]); 32 µg/mL in [10] (Pseudomonas aeruginosa, ATCC27853). Besides, the “MIC E. coli lptD mutant” value in experiment [2] is 32 µg/mL.
Take `CC(C)C[C@@H]1CCO[C@@H]2[C@H](CN[C@@H]2C(=O)N[C@@H]2CC/C=C/CS[C@H]3O[C@H]2[C@H](O)[C@H](O)[C@H]3O)C1` [FSA1503054, (4S,5aS,8S,8aR)-4-isobutyl-N-((1R,8R,9R,10R,11S,12R,E)-10,11,12-trihydroxy-13-oxa-2-thiabicyclo[7.3.1]tridec-4-en-8-yl) octahydro-2H-oxepino[2,3-c]pyrrole-8-carboxamide formate salt]: the MIC was 32 µg/mL in experiment [11]; at most 0.03 µg/mL in [12]; 8 µg/mL in [13]; 4 µg/mL in [14]; 16 µg/mL in experiment [15]; 1 µg/mL in experiment [16]. Further, the MIC in experiment [17] was 0.125 µg/mL; in experiment [8] (setting [27]), 16 µg/mL; in experiment [18], at most 0.03 µg/mL; in [9] (setting [26]), 0.125 µg/mL.
Take `CC(C)C[C@@H]1CCO[C@@H]2[C@H](CN[C@@H]2C(=O)N[C@@H]2CC/C=C\CSC3OC2C(O)C(O)C3O)C1` (stereo partly drawn) [FSA1503055, (4S,5aS,8S,8aR)-4-isobutyl-N-((1R,8R,9R,10R,11S,12R,Z)-10,11,12-trihydroxy-13-oxa-2-thiabicyclo[7.3.1]tridec-4-en-8-yl) octahydro-2H-oxepino[2,3-c]pyrrole-8-carboxamide formate salt]: the MIC in experiment [11] was over 64 µg/mL; in experiment [12], 0.125 µg/mL; in experiment [13], 32 µg/mL; in [14], 64 µg/mL; in experiment [15], 4 µg/mL; in experiment [16] it was 16 µg/mL. Also, the MIC in experiment [17] is 0.5 µg/mL; in experiment [8] (setting [27]) it was over 64 µg/mL; in [18], 0.25 µg/mL; in [9] (setting [26]), 0.5 µg/mL.
As for `CC(C)C[C@@H]1CCO[C@@H]2[C@H](CN[C@@H]2C(=O)N[C@H]2[C@H]3O[C@H](SC[C@H](F)C/C=C\[C@H]2C)[C@H](O)[C@@H](O)[C@H]3O)C1` [FSA1609033, (4S,5aS,8S,8aR)—N-((1R,4R,8R,9R,10R,11R,12S,13R,Z)-4-fluoro-11,12,13-trihydroxy-8-methyl-14-oxa-2-thiabicyclo[8.3.1]tetradec-6-en-9-yl)-4-isobutyloctahydro-2H-oxepino[2,3-c]pyrrole-8-carboxamide formate salt], the MIC in experiment [1] is 0.25 µg/mL; in [2] (Escherichia coli, 24 h, read-out: MIC E. coli lptD mutant, lptD mutant / ΔlptD mutant) it was 0.125 µg/mL; in experiment [3] it was 4 µg/mL; in [4] it was at most 0.06 µg/mL; in [19], at most 0.06 µg/mL; in [5], 0.25 µg/mL. The MIC in experiment [20] is at most 0.06 µg/mL; in experiment [21], 1 µg/mL; in [22], at most 0.03 µg/mL; in [6], at most 0.06 µg/mL; in [7] it was 2 µg/mL; in experiment [8], 1 µg/mL. Besides, in [9], the MIC is at most 0.06 µg/mL.
